From patent US20160250213A1, “FORMULATIONS OF AZAINDOLE COMPOUNDS” (priority 2013, published 2016)

Experiments:
[1] = system: A/New York/18/2009 (H1N1); assay: microbe, parasite or virus in culture; assay type: cell-based; conditions: Influenza A virus, H1N1, MDCK; read-out: Cell Protection Assay EC50 ± SD
[2] = system: A/Cambodia/0371/2007 (H1N1); assay: microbe, parasite or virus in culture; assay type: cell-based; conditions: Influenza A virus, MDCK, read-out: Cell Protection Assay EC50 ± SD

## O=C(O)[C@H]1C2CCC(CC2)C1Nc1nc(-c2c[nH]c3ncc(F)cc23)ncc1F (some centres unmarked) [Compound (1)]
[1]
  EC50: 590 pM
[2]
  EC50: 610 ± 330 pM
